The values that follow come from patent US4212862A, “O,O-Diaryl-1-acyloxy-2,2,2-trichloroethylphosphonates and fungicides based thereon” (priority 1978, dated 1980).

Data set [1] deals with rust diseases of cereal crops. As to the kind of experiment: Activity against rust diseases of cereal crops (general statements). The format is in vivo. The note with it: frequent heavy rains.
For data set [2], the system named is rust diseases of cereal crops. To be noted: prior art; cited from earlier work.
For data set [3], the system named is stalk rust (Puccinia graminis f. tritici). The format is in vivo. To be noted: for Plant injury / Weight of 1,000 grains: Table 5, Moscow region, spring wheat Krasnozernaja, 3 sprayings.
For data set [4], the system named is stalk rust of wheat (Puccinia graminis). The format is in vivo. The note with it: in vivo.
Data set [5] relates to stalk rust (Puccinia graminis f. tritici). The format is in vivo. To be noted: in vivo.
A short description of data set [6]: Acute peroral toxicity for warm-blooded animals (LD50, LD90). It is filed as in vivo, white mice. The note with it: mouse, in vivo, po, Table 2; peroral; read-out: LD50 for white mice. As to the method: (§1) Toxicity (LD50) was evaluated on males and females of white mice with peroral administration of the compounds. A portion of the test compound was mixed with the emulsifier Twin-20 and diluted with distilled water to the required working concentration. Administration of the preparation was effected by means of a metal probe and syringe directly into the stomach of test animals 2-3 hours after feeding. The tests were performed using several doses, 6 animals per each dose. Subsequent observation was effected for two weeks.

The test system of a further data set is white mice. Described as above. To be noted: Table 2; peroral; 20160 min. The format is in vivo. As to the method: as §1
Data set [7] has as its system spores of Piricularia oryzae Cav. The format is cell-based. The note with it: 24 hours.

Each structure is given as a SMILES string. Where “and” joins values, the source holds several entries; their conditions need not be identical. Equal values may be shown once. Read-outs that look alike come from different tables or passages of the source.

In the case of `CC1=C(C(=O)Nc2ccccc2)S(=O)(=O)CCO1` [Hydroxycarboxine, 1,4-dioxide-2,3-dihydro-6-methyl-5-phenylcarbamoyl-1,4-oxathiine], in data set [1], the “efficiency under different agroclimatic conditions including frequent heavy rains” value is “low-effective”. Also, the “activity against rust diseases” value in data set [2] is listed as “efficient in killing rust fungi”. Further, in data set [3] (1.5 kg/ha a.p.), the Plant injury is on record as 21.7% and the “Weight of 1,000 grains” value was 12.0 g. Besides, in data set [3] (3.0 kg/ha a.p.), the Plant injury was 16.1% and the “Weight of 1,000 grains” value is 12.4 g. The Yield in data set [3] (in vivo) is 9.5 c/ha and 9.3 c/ha.

With `CCC(=O)OC(C(Cl)(Cl)Cl)P(=O)(Oc1ccccc1)Oc1ccccc1` (stereo not shown) [II], the “Percentage of injury lowered” value in data set [4] is 78% and 63%. Also, in data set [5], the “Percentage of plants injured with rust, 1-st evaluation” value (shortened to “Percentage … 1-st evaluation”) was 0.5%; the “Percentage of plants injured with rust, 2-nd evaluation” value (“Percentage … 2-nd evaluation” below) turned out to be 11.0%; the “Weight of 1,000 grains” value was 16.5 g; the Yield stood at 11.50 c/ha. For the same molecule, the LD50 at 336 h in data set [6] is more than 1000 mg/kg.

`CCCCCCCCc1ccc(OP(=O)(Oc2ccc(CCCCCCCC)cc2)C(OC(C)=O)C(Cl)(Cl)Cl)cc1` (stereo not shown) [XXIV]: in data set [4], the “Percentage of injury lowered” value is 62% and 35%. Further, in data set [5], the “Percentage … 1-st evaluation” value is 0.5%; the “Percentage … 2-nd evaluation” value came to 12.0%; the “Weight of 1,000 grains” value came out at 13.5 g; the Yield amounted to 8.00 c/ha. Moreover, the LD50 at 336 h in data set [6] was more than 1000 mg/kg.

As for `CCCCCCC(=O)OC(C(Cl)(Cl)Cl)P(=O)(Oc1ccc(-c2ccccc2)cc1)Oc1ccc(-c2ccccc2)cc1` (stereo not shown) [XLIX], in data set [4], the “Percentage of injury lowered” value amounted to 49%. Further, the “LD50 for white mice” value in the data set on white mice was > 1,000 mg/kg.

In the case of `CCCCC(CC)C(=O)OC(C(Cl)(Cl)Cl)P(=O)(Oc1ccc(C)cc1)Oc1ccc(C)cc1` (stereo not shown) [XXII], in data set [4], the “Percentage of injury lowered” value was 94% and 48%. For the same molecule, in data set [5], the “Percentage … 1-st evaluation” value turned out to be 0.5%; the “Percentage … 2-nd evaluation” value worked out at 9.0%; the “Weight of 1,000 grains” value was 15.8 g; the Yield amounted to 11.00 c/ha. Further, the LD50 at 336 h in data set [6] was more than 1000 mg/kg.

For the molecule `CCCCCCC(=O)OC(C(Cl)(Cl)Cl)P(=O)(Oc1cccc(C)c1)Oc1cccc(C)c1` (stereo not shown) [XV], the “Percentage of injury lowered” value in data set [4] is 98% and 80%. For the same molecule, in data set [5], the “Percentage … 1-st evaluation” value is 0.5%; the “Percentage … 2-nd evaluation” value is reported as 7.0%; the “Weight of 1,000 grains” value is 19.4 g; the Yield was 15.10 c/ha. Further, the 50% lethal dose (LD50) at 336 h in data set [6] is more than 1000 mg/kg.

On to `CCOP(=O)(OCC)SCc1ccccc1` [kitacin, O,O-diethyl-S-benzylthiophosphate, reference compound], for which, in data set [7], the “Concentration causing 50% death of spores” value was 28.6 mg/L.

As to `O=C(OC(C(Cl)(Cl)Cl)P(=O)(Oc1ccccc1)Oc1ccccc1)c1ccccc1` (stereo not shown) [VI], the “Percentage of injury lowered” value in data set [4] is 99% and 98%. Further, in data set [5], the “Percentage … 1-st evaluation” value is 0.5%; the “Percentage … 2-nd evaluation” value was determined as 8.5%; the “Weight of 1,000 grains” value was 16.4 g; the Yield is 11.30 c/ha. Further, in data set [6], the LD50 at 336 h is more than 1000 mg/kg.

For `CC(=O)OC(C(Cl)(Cl)Cl)P(=O)(Oc1ccccc1C)Oc1ccccc1C` (stereo not shown) [VII], in data set [4], the “Percentage of injury lowered” value is 83% and 77%. Besides, in data set [5], the “Percentage … 1-st evaluation” value stood at 0.5%; the “Percentage … 2-nd evaluation” value came to 9.0%; the “Weight of 1,000 grains” value was 15.1 g; the Yield is 10.10 c/ha. The median lethal dose (LD50) at 336 h in data set [6] was more than 1000 mg/kg.

For `CCCC(=O)OC(C(Cl)(Cl)Cl)P(=O)(Oc1ccccc1)Oc1ccccc1` (stereo not shown) [III], the “Percentage of injury lowered” value in data set [4] is 68% and 51%. Besides, in data set [5], the “Percentage … 1-st evaluation” value was found to be 0.5%; the “Percentage … 2-nd evaluation” value is reported as 7.0%; the “Weight of 1,000 grains” value came to 18.4 g; the Yield is 14.00 c/ha. For the same molecule, the LD50 at 336 h in data set [6] was more than 500 mg/kg.

Regarding `CC(=O)OC(C(Cl)(Cl)Cl)P(=O)(Oc1cccc(C)c1)Oc1cccc(C)c1` (stereo not shown) [XII], the “Percentage of injury lowered” value in data set [4] is 86% and 68%. Also, in data set [5], the “Percentage … 1-st evaluation” value turned out to be 0.5%; the “Percentage … 2-nd evaluation” value was 8.0%; the “Weight of 1,000 grains” value is 16.1 g; the Yield came to 11.00 c/ha. For the same molecule, the 50% lethal dose (LD50) at 336 h in data set [6] was more than 1000 mg/kg.

Turning to `CCC(=O)OC(C(Cl)(Cl)Cl)P(=O)(Oc1ccc(C)cc1)Oc1ccc(C)cc1` (stereo not shown) [XIX], in data set [4], the “Percentage of injury lowered” value is 100% and 66%. In addition, in data set [5], the “Percentage … 1-st evaluation” value worked out at 0.5%; the “Percentage … 2-nd evaluation” value turned out to be 8.0%; the “Weight of 1,000 grains” value came to 18.9 g; the Yield was 14.60 c/ha. The LD50 at 336 h in data set [6] is more than 1000 mg/kg.

Consider `Cc1ccc(OP(=O)(Oc2ccc(C)cc2)C(OC(=O)c2ccccc2)C(Cl)(Cl)Cl)cc1` (stereo not shown) [XXIII], for which the “Percentage of injury lowered” value in data set [4] was 89% and 79%. For the same molecule, in data set [5], the “Percentage … 1-st evaluation” value turned out to be 0.5%; the “Percentage … 2-nd evaluation” value was found to be 8.0%; the “Weight of 1,000 grains” value came to 18.1 g; the Yield is on record as 13.30 c/ha. Further, the LD50 at 336 h in data set [6] is more than 1000 mg/kg.

Take `CC(=O)OC(C(Cl)(Cl)Cl)P(=O)(Oc1ccc(C)cc1)Oc1ccc(C)cc1` (stereo not shown) [XVIII]: the “Percentage of injury lowered” value in data set [4] is 91% and 63%. For the same molecule, in data set [5], the “Percentage … 1-st evaluation” value turned out to be 0.5%; the “Percentage … 2-nd evaluation” value is recorded as 6.5%; the “Weight of 1,000 grains” value is 21.4 g; the Yield was determined as 17.20 c/ha. Besides, the LD50 at 336 h in data set [6] is more than 500 mg/kg.

For the molecule `CCCCCCC(=O)OC(C(Cl)(Cl)Cl)P(=O)(Oc1ccc(C)cc1)Oc1ccc(C)cc1` (stereo not shown) [XXI], in data set [4], the “Percentage of injury lowered” value amounted to 97%. In addition, in data set [5], the “Percentage … 1-st evaluation” value amounted to 0.5%; the “Percentage … 2-nd evaluation” value amounted to 7.5%; the “Weight of 1,000 grains” value turned out to be 18.2 g; the Yield turned out to be 14.00 c/ha. In data set [6], the median lethal dose (LD50) at 336 h is more than 1000 mg/kg.

As to `CCCC(=O)OC(C(Cl)(Cl)Cl)P(=O)(Oc1cccc(C)c1)Oc1cccc(C)c1` (stereo not shown) [XIV], the “Percentage of injury lowered” value in data set [4] was 99% and 92%. Moreover, in data set [5], the “Percentage … 1-st evaluation” value was found to be 0.5%; the “Percentage … 2-nd evaluation” value was determined as 7.0%; the “Weight of 1,000 grains” value is listed as 17.2 g; the Yield amounted to 12.00 c/ha. The 50% lethal dose (LD50) at 336 h in data set [6] was more than 1000 mg/kg.
